Reference: ChEMBL document CHEMBL5113372, “Paradigm shift of "classical" HDAC inhibitors to "hybrid" HDAC inhibitors in therapeutic interventions” (Eur J Med Chem, 2021)
One block for each molecule: values may come before it.

Assays:
A549 = experiment: Anti-proliferative activity against human A549 cells assessed as cell growth inhibition by MTT assay; assay type: functional, cell-based
Histone deacetylase 1 [1] = target: T1, Histone deacetylase 1 (Homo sapiens, UniProt Q13547); experiment: Inhibition of full-length recombinant human HDAC1 expressed in baculovirus infected Hi-5 insect cells using AcLys-Tyr-Lys(e-acetyl)-AMC as substrate incubated for 24 hrs by enzymatic assay
K562 = experiment: Antiproliferative activity against human K562 cells assessed as cell growth inhibition incubated for 48 hrs by MTT assay; assay type: functional, cell-based; conditions: K562, 48 h
HepG2 = experiment: Antiproliferative activity against human HepG2 cells assessed as cell growth inhibition incubated for 48 hrs by MTT assay; assay type: functional, cell-based; conditions: HepG2, 48 h
DU-145 [2] = experiment: Antiproliferative activity against human DU-145 cells assessed as cell growth inhibition incubated for 48 hrs by MTT assay; assay type: functional, cell-based; conditions: DU-145, 48 h
[3] = target: Protein kinase C alpha type (Mus musculus, UniProt P20444); experiment: Binding affinity to mouse PKC-alpha assessed as inhibition constant
Histone deacetylase 1 [4] = target: T1, Histone deacetylase 1; experiment: Inhibition of HDAC1 (unknown origin)
[5] = target: T2, Protein deacetylase HDAC6 (Homo sapiens, UniProt Q9UBN7); experiment: Inhibition of HDAC6 (unknown origin)
T2 sequence (Q9UBN7 whole entry): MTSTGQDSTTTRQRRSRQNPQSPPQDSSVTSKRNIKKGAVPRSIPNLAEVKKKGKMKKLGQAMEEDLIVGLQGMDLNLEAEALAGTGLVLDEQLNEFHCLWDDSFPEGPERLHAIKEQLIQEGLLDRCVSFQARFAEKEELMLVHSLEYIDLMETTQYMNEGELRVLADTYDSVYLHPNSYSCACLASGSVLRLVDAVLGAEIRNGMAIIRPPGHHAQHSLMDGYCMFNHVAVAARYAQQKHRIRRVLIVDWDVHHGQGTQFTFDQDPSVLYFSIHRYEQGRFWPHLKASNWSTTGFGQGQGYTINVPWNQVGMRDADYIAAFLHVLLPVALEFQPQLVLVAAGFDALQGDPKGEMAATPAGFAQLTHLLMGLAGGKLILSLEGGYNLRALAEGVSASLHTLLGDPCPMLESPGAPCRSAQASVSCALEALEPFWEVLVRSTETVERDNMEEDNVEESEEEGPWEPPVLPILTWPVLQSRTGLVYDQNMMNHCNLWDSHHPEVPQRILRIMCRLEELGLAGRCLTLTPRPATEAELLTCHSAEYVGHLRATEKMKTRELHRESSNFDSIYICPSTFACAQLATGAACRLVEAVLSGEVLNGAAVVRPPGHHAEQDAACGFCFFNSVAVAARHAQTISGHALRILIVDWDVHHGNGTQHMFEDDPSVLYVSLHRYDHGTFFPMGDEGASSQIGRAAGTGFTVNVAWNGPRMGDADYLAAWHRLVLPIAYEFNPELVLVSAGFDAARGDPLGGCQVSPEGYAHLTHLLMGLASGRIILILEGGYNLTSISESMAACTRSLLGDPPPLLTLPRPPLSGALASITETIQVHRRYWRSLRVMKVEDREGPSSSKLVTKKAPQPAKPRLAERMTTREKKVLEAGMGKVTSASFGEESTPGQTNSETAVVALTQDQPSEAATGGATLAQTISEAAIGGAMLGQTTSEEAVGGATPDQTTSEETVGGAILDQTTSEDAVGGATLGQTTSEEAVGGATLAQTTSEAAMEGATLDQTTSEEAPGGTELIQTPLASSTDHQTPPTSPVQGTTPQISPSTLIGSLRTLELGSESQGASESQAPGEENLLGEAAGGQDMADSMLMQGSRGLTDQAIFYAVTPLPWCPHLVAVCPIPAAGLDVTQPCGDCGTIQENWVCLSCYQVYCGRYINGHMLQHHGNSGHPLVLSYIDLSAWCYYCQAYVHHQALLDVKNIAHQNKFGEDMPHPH

[6] = target: Protein-glutamine gamma-glutamyltransferase (Homo sapiens, UniProt P21980); experiment: Inhibition of recombinant human TG2 using N-Cbz-Glu(gamma-p-nitrophenylester) as substrate measured for 10 mins by absorbance based microplate reader analysis
Cortical neurone = experiment: Neuroprotective activity against glutamate-induced mouse primary cortical neurons assessed as neuronal viability incubated for 24 hrs by MTT assay; assay type: functional, cell-based
Histone deacetylase 2 = Histone deacetylase 2 (Homo sapiens, UniProt Q92769); experiment: Inhibition of HDAC2 (unknown origin)
[7] = target: High affinity cGMP-specific 3',5'-cyclic phosphodiesterase 9A (Homo sapiens, UniProt O76083); experiment: Inhibition of PDE9 (unknown origin)
[8] = Inhibition of PDE5 (unknown origin); design: species or system Homo sapiens
Histone deacetylase 1 [9] = target: T1, Histone deacetylase 1; experiment: Inhibition of His-tagged recombinant human HDAC1 (482 residues) expressed in baculovirus infected insect cells using FLUOR DE LYS-SIRT1 as substrate preincubated for 5 mins followed by substrate addition measured after 30 mins by fluorescence based assay
[10] = target: T2, Protein deacetylase HDAC6; experiment: Inhibition of His-tagged recombinant human HDAC6 expressed in baculovirus infected insect cells using Boc-Lys(Ac)-AMC as substrate preincubated for 5 mins followed by substrate addition measured after 30 mins by fluorescence based assay
DU-145 [11] = experiment: Inhibition of colony formation in human DU-145 cells incubated for 10 days by crystal violet method; assay type: functional, cell-based; conditions: DU-145, 240 h
PC-3 = experiment: Inhibition of colony formation in human PC-3 cells incubated for 10 days by crystal violet method; assay type: functional, cell-based; conditions: PC-3, 240 h
Histone deacetylase 8 [12] = target: T3, Histone deacetylase 8 (Homo sapiens, UniProt Q9BY41); experiment: Inhibition of recombinant human HDAC8 using Fluor-de-lys substrate by fluorescence based microplate reader analysis
T3 sequence (Q9BY41 whole entry): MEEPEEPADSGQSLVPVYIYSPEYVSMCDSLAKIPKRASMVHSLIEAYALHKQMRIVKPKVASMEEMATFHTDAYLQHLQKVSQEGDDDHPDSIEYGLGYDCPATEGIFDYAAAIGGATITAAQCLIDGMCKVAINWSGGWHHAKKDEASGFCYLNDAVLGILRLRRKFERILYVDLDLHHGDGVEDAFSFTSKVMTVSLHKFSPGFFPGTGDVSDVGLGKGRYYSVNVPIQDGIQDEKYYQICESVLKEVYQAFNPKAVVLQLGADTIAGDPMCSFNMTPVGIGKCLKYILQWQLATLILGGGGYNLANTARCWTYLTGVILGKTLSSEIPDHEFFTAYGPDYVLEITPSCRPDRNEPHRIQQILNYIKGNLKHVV

[13] = target: 72 kDa type IV collagenase (Homo sapiens, UniProt P08253); experiment: Inhibition of MMP2 (unknown origin) using chromogenic substrate incubated for 1 hr followed by substrate addition measured for 30 mins by microplate photometry
[14] = tested on: Panel NCI-60 (60 carcinoma cell lines); experiment: Cytotoxicity against human Panel NCI-60 (60 carcinoma cell lines) cells assessed as cell growth inhibition; assay type: functional, cell-based
Histone deacetylase 3 = Histone deacetylase 3 (Homo sapiens, UniProt O15379); experiment: Inhibition of HDAC3 (unknown origin)
Histone deacetylase 4 = Histone deacetylase 4 (Homo sapiens, UniProt P56524); experiment: Inhibition of HDAC4 (unknown origin)
Histone deacetylase 5 = Histone deacetylase 5 (Homo sapiens, UniProt Q9UQL6); experiment: Inhibition of HDAC5 (unknown origin)
Histone deacetylase = experiment: Inhibition of pan-HDAC (unknown origin); assay type: protein assay, Homo sapiens
DU-145 [15] = experiment: Anti-proliferative activity against human DU-145 cells assessed as cell growth inhibition measured after 72 hrs by SRB assay; assay type: functional, cell-based; conditions: DU-145, 72 h
Histone deacetylase 8 [16] = target: T3, Histone deacetylase 8; experiment: Inhibition of HDAC8 (unknown origin)
DU-145 [17] = experiment: Cytotoxicity against human DU-145 cells assessed as cell growth inhibition; assay type: functional, cell-based
SMMC-7721 = experiment: cells; assay type: functional, cell-based; conditions: Homo sapiens, SMMC-7721, 48 h

T1 sequence (Q13547 whole entry): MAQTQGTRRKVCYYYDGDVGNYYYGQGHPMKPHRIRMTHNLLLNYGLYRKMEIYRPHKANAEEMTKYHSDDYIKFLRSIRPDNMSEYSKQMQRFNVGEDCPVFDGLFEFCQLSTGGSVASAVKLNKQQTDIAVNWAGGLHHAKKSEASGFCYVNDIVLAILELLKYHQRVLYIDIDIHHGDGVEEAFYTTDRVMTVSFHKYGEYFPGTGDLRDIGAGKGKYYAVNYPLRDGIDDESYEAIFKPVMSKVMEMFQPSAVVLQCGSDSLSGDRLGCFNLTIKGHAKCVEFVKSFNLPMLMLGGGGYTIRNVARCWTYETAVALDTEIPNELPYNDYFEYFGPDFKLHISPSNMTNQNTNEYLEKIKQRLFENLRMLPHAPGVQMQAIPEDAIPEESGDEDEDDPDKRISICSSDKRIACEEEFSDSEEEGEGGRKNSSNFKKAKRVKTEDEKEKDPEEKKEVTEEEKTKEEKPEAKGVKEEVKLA
Chain of Histone deacetylase 2 (Q92769 whole entry): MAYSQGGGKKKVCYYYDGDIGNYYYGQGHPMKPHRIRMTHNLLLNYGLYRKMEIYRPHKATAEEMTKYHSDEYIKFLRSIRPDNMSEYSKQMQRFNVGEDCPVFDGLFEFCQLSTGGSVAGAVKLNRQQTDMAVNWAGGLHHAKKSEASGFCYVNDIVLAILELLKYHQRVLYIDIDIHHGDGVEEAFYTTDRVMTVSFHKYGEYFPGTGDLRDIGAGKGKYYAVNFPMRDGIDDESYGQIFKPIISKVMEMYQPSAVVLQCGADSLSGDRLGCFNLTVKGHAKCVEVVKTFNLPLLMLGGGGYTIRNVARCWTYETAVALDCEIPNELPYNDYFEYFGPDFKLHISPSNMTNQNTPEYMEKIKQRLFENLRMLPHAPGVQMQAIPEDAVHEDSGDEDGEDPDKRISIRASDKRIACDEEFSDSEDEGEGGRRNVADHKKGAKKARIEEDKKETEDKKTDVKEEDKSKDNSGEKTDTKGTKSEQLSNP
Chain of High affinity cGMP-specific 3',5'-cyclic phosphodiesterase 9A (O76083 whole entry): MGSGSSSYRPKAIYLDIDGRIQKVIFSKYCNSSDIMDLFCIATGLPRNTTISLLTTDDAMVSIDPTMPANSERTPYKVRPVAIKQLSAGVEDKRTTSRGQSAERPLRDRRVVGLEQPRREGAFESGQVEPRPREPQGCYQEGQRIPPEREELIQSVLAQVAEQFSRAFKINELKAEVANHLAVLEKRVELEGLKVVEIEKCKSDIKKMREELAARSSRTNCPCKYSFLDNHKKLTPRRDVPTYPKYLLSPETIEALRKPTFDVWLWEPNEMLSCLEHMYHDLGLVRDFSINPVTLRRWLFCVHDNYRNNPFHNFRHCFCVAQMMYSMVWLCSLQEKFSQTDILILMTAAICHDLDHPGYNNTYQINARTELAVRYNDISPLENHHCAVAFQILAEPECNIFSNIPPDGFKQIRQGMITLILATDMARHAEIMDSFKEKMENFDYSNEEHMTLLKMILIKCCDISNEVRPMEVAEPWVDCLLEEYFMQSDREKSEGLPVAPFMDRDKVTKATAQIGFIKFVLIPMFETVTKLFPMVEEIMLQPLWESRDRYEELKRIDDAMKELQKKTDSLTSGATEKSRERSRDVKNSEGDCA
Chain of Histone deacetylase 4 (P56524 whole entry): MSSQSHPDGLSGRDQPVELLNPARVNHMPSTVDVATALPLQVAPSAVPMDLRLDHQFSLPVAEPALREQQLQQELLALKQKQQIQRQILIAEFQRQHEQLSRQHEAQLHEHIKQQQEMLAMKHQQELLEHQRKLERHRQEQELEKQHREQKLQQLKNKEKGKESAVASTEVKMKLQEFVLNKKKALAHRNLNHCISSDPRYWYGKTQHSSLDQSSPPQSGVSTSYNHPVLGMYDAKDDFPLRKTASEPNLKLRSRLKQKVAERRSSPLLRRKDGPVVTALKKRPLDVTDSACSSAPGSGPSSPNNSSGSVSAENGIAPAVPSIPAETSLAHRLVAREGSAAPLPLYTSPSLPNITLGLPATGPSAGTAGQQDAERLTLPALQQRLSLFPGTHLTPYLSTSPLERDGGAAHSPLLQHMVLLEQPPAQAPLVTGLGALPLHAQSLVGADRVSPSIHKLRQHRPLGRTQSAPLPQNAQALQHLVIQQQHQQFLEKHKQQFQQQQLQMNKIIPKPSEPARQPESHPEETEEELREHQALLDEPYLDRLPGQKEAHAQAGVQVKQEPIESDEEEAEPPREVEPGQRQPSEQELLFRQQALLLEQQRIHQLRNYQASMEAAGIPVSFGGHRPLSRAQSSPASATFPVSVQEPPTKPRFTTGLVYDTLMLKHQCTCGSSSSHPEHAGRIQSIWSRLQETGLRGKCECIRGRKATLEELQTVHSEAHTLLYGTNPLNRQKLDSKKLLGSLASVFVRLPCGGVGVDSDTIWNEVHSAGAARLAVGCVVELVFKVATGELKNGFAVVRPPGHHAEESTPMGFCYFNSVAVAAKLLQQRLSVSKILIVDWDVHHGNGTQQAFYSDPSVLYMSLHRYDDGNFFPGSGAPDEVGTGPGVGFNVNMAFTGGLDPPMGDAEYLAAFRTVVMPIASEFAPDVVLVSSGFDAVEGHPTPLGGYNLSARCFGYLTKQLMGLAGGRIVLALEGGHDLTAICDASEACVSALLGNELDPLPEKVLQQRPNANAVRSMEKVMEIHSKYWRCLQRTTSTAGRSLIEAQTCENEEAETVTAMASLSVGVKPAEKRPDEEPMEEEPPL
Chain of Protein-glutamine gamma-glutamyltransferase (P21980 whole entry): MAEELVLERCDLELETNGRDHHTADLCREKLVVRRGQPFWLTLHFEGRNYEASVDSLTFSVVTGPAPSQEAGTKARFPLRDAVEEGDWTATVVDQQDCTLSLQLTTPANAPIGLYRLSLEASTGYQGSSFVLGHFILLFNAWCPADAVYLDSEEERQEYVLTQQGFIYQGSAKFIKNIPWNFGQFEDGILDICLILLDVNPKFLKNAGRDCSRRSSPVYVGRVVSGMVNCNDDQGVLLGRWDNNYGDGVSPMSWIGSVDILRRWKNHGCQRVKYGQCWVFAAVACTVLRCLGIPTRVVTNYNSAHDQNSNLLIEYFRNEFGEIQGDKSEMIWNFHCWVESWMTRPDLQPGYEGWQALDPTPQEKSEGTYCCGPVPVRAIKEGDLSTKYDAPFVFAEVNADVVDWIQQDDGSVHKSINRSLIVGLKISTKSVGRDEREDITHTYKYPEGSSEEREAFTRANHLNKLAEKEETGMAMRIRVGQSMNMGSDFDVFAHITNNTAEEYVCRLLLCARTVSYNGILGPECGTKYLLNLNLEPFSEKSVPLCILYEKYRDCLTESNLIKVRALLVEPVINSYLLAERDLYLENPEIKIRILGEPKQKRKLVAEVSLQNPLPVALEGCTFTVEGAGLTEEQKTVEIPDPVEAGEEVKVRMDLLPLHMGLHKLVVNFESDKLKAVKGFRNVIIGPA
Chain of 72 kDa type IV collagenase (P08253 whole entry): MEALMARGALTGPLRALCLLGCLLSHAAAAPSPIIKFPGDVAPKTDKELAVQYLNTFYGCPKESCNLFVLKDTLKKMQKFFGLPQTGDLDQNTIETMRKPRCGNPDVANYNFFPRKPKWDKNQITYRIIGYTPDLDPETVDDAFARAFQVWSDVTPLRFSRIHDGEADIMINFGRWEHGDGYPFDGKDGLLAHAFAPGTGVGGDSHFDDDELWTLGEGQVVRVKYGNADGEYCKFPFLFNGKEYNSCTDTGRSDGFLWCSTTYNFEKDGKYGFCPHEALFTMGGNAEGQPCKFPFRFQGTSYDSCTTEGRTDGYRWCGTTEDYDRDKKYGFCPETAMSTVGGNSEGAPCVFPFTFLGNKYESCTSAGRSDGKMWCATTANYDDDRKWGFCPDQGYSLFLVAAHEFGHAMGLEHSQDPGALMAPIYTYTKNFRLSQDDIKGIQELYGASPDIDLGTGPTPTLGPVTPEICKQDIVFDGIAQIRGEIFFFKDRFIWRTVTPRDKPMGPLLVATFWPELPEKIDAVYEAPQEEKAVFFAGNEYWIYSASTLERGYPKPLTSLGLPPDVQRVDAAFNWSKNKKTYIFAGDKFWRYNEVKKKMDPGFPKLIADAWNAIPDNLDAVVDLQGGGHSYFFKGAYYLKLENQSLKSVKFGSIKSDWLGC

IC50 (A549): 720 nM
SMILES: O=C(CCCCCOc1ccc(-c2nc3ccccc3c3cc(-c4ccccc4)nn23)cc1)NO

IC50 (Histone deacetylase 1 [1]): 810 nM | IC50 (K562): 2260 nM | IC50 (HepG2): 10400 nM | IC50 (DU-145 [2]): 600 nM
SMILES: CCN1CCN(c2cc(Nc3ncc(C(=O)Nc4ccc(F)cc4N)s3)ncn2)CC1

Ki [3]: 8.7 nM
SMILES: CC(=O)SCCCCCCOc1ccc2c(c1)N(C)[C@@H](C(C)C)C(=O)N[C@H](CO)C2

IC50 (Histone deacetylase 1 [4]): 3380 nM | IC50 [5]: 4100 nM | IC50 [6]: 13300 nM
SMILES: O=C(CCCCNC(=S)Nc1ccc(/C=C/C(=O)c2cccnc2)cc1)NO
EC50 (Cortical neurone): 3700 nM

IC50 (Histone deacetylase 1 [4]): 593 nM | IC50 (Histone deacetylase 2): 3530 nM | IC50 [5]: 40 nM | IC50 [7]: 107 nM | IC50 [8]: > 10000 nM
SMILES: C[C@H]1CN(Cc2ccc(C(=O)NO)cc2)C[C@@H]1c1nc2c(cnn2C2CCCC2)c(=O)[nH]1

IC50 (Histone deacetylase 1 [4]): 99 nM | IC50 (Histone deacetylase 2): 545 nM | IC50 [5]: > 10000 nM | IC50 [7]: 57 nM | IC50 [8]: > 10000 nM
SMILES: C[C@@H](c1nc2c(cnn2C2CCCC2)c(=O)[nH]1)N1CC(Cc2ccc(C(=O)Nc3ccccc3N)cc2)C1

IC50 (Histone deacetylase 1 [9]): 16.6 nM | IC50 [10]: 2.2 nM | IC50 (DU-145 [11]): 160 nM | IC50 (PC-3): 310 nM
SMILES: O=C(CCCCCNC(=O)c1cccc2cc3ccccc3nc12)NO

IC50 (Histone deacetylase 8 [12]): 3800 nM | IC50 [13]: 83700 nM
SMILES: COc1ccc(CC(=O)N[C@@H](CCC(=O)O)C(=O)NCc2ccccc2)cc1

SMILES: Cn1c(CCCC(=O)O)nc2cc(N(CCCl)CCCl)ccc21 [BENDAMUSTINE]
IC50 (Histone deacetylase 1 [4]): 10 nM | IC50 (Histone deacetylase 2): 10 nM | IC50 [5]: 10 nM | IC50 [14]: 2200 nM | IC50 (Histone deacetylase 3): 10 nM | IC50 (Histone deacetylase 4): 10 nM | IC50 (Histone deacetylase 5): 10 nM

SMILES: CC[C@@]1(O)C(=O)OCc2c1cc1n(c2=O)Cc2cc3ccccc3nc2-1 [CAMPTOTHECIN]
IC50 (Histone deacetylase): 50 nM | IC50 (DU-145 [15]): 70 nM

IC50 (Histone deacetylase 1 [4]): 47 nM | IC50 [5]: 20 nM | IC50 (Histone deacetylase 8 [16]): 220 nM
SMILES: COc1cccc2c1C(=O)c1c(O)c3c(c(O)c1C2=O)C[C@@](O)(C(C)=O)C[C@@H]3O[C@H]1C[C@H](N)[C@H](O)[C@H](C)O1 [DAUNORUBICIN]
IC50 (DU-145 [17]): 130 nM

IC50 (SMMC-7721): 6700 nM
SMILES: CC(C)=CCC/C(C)=C/CC/C(C)=C/CSc1ccccc1C(=O)O [SALIRASIB]
